# Measured values: patent publication US8318717B2, “Compounds modifying apoptosis” (2cureX, priority 2005, dated 2012)
# What was measured:
# XIAP = target: T1, XIAP (Homo sapiens, UniProt P98170); test: Pull down of XIAP from cell lysates by compound-carrying beads (Western); type: binding
# T1 construct: pull down one member of the IAP family, XIAP from cell lysates prepared from various tissues; endogenous in cells; host or cells: Hek293 cells, Hela cells, colon tissue (lysates)
# Protocol: Beads displaying compound 2CX2.201 or 2CX4.401 respectively are compared with regard to their ability to bind and pull down one member of the IAP family, XIAP from cell lysates prepared from various tissues.
# • Positive control resin beads carrying a tetra-peptide (H-Ala-Val-Pro-Phe-Bead) mimicking the N-terminal part of Smac that binds to BIR3 domain of XIAP was prepared. The method of preparation was analogous to the general procedure described in example 2 with the change that only the four specific peptides were included in each of the four couplings and that the split and mix step was omitted. • Resin beads carrying 2CX2.201 was prepared as described above. • Resin beads carrying 2CX4.401 was prepared as described above. Lysate Preparation: • Hek293 and Hela: Cells are scraped off the plate in Phosphate Buffered Saline (PBS) at 4° C. • Colon tissue: Is blended into a homogeneous suspension in PBS at 4° C. • All cell suspensions are centrifuged for 10 min at 3000 rpm and supernatant is discarded. • Pellet is re-suspended in lysis buffer (50 mM Tris-HCL, 1 mM EGTA, 1 mM EDTA, 1% Triton-X W/W, 1 mM Sodium orthovanadate, 50 mM Sodium fluoride, 5 mM Sodium pyrophosphate, 1 mM MDTT, “Complete” (protease inh.) One tablet for 50 ml) • Incubate for 20 min at 4° C. • Centrifuge at 32.000 G for 30 min, 4° C. • Move supernatant to new vial (discard pellet) • Measure protein concentration Pull Down: • Bead/lysate ratio: 20 ul beads/10 mg lysate (equivalent to one pull down) • Beads are washed in 1 ml lysis buffer×2 • Lysate+beads are mixed and incubated for 1 hrs at 4° C., shaking • Beads are washed ×4 in 1 ml Lysis buffer w. […]
# [1] = Stability in serum from mice; type: in vitro ADME
# [2] = tested on: primary colon cancer cells from patients and colon cancer lines (i.e. HT29); test: Cell penetration, IAP inhibition and apoptosis in colon cancer cells; type: cell-based, human
# [3] = tested on: human colorectal adenocarcinoma cell line HT-29; test: Xenograft study, HT-29 tumours in nude mice; type: in vivo, nude BALB/c mice
# From the text: Female athymic nude BALB/c mice (BALB/cABom-Foxn1^nu, CA.Cg-Foxn1^nu) are obtained from Taconic Ltd, Ry, Denmark and maintained in the animal facility. Animals are approximately 6 weeks old with an initial body weight of 17-18 g when used for the experiments. The mice are housed in microisolators (filter top cages, Tecniplast, Buguggiata, Italy) under pathogen-free conditions with a 12-h light/12-h dark schedule and fed autoclaved standard chow (Altromin #1324, Lage, Germany) and water ad libitum throughout the experiment. All animals are handled under sterile conditions and maintained in a separate facility. The Danish Experimental Animal Inspectorate has approved the experimental protocol and all animal experiments are performed according to the ethical standards required by the UKCCCCR Guidelines {UKCCCR 1998}. During the study blood samples is taken one time per week. The number of animals per group (control-treatment) should be 8 animals at a minimum. Thirty-fifty percent more animals are inoculated with cells than needed in the study in order to be able to exclude animals in which there is no tumour take—i.e. the tumour fails to establish and grow progressively.
# The human colorectal adenocarcinoma cell line HT-29 (HTB-38) has been obtained from the American Type Culture Collection (ATCC) Manassas, Va., USA. Tumour cells growing exponentially are harvested by brief incubation with 0.05% Trypsin-EDTA solution suspended in new medium for injection.
# Tumour xenografts are initiated by subcutaneous (s.c.) injection of 10^7 cells into the left flank of nude mice. […]
# Tumour volume, food consumption, body weight is measured twice a week. […] Evaluation of tumour growth: The tumours are measured every 3-4 day with a calliper. Baseline tumour weight are calculated by using the following formula mg=(L×W^2)/2 where L=length, W=width and these are perpendicular to each other {Teicher BA 1997}. […]
# All data are expressed as the mean±SEM, and statistical analyses of the tumour data are performed using t-test. […]
# T1 sequence (P98170 whole entry): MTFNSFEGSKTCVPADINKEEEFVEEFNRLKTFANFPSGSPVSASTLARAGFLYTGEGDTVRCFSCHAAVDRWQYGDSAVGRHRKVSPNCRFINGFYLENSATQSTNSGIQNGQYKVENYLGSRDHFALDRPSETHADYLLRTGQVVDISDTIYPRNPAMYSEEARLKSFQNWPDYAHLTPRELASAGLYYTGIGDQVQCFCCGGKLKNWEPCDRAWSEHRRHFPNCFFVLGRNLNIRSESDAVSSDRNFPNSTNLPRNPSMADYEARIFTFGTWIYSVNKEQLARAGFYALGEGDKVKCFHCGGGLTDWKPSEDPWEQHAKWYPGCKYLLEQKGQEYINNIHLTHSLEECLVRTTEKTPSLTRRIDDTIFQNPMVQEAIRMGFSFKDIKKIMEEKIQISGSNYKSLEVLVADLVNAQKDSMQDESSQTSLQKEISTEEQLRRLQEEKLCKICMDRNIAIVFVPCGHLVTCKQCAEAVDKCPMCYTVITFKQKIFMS
structure (smiles),measurement,setting,value
CN[C@@H](C)C(=O)N[C@H](C(=O)N1C[C@@H](NCC2CCCCC2)C[C@H]1C(=O)N[C@@H](Cc1ccccc1)C(N)=O)C(C)C [2CX4.401],"affinity for XIAP, comparison of the two compounds",XIAP; conclusion from pull down experiments,significant higher affinity than that of 2CX2.201
same,pull down of XIAP (FIG. 5a),"XIAP; lysates of Hek293, Hela, colon tissue, compound on beads",approximately the same degree as the endogenous AVPF peptide
same,pull down of XIAP (FIG. 5b),XIAP; prolonged exposure time to increase sensitivity,weaker effect
same,stability in serum,[1],high degree of stability
same,apoptosis,[2],promote apoptosis
same,inhibition of IAPs,[2],inhibits IAPs
same,effect on Paclitaxel efficacy (tumour weight),"[3]; combination with paclitaxel, 29 days after inoculation, FIG. 4",significantly potentiated the effect of Paclitaxel
same,tumour weight relative to that observed with Paclitaxel alone,"[3]; combined treatment: 2CX4.401 0.0625 mg/h osmotic pump + paclitaxel 25 mg/kg s.c. once a week, 29 days after inoculation",approx. 15%
same,tumour growth in mono-therapy,"[3]; mono-therapy, osmotic pump 0.0625 mg/h, 29 days",does not affect tumour growth
